Assay results from ChEMBL document CHEMBL4610029, “Essential structure of orexin 1 receptor antagonist YNT-707, part V: Structure-activity relationship study of the substituents on the 17-amino group” (Bioorg Med Chem Lett, 2020).

Molecular target: T1, Orexin/Hypocretin receptor type 1 (Homo sapiens, UniProt O43613)
T1 sequence (O43613 whole entry): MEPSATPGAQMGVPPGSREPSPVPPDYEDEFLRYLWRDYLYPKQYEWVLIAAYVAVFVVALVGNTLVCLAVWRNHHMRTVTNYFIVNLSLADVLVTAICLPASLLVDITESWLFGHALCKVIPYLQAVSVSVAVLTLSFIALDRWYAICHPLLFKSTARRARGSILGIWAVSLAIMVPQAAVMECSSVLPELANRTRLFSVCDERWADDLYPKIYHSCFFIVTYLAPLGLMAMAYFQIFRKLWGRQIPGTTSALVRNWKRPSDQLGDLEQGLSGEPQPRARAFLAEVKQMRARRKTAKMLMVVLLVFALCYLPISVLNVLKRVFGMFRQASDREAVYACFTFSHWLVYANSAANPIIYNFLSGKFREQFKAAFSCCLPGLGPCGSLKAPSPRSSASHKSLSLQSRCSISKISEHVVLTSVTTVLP
Assay: Antagonist activity at OX1R (unknown origin) assessed as inhibition of orexin A-induced intracellular Ca2+ release by cell-based assay
Type: functional
Conditions: not given; call rule not given here

| SMILES | Ki |
| --- | --- |
| COc1ccc2c3c1O[C@@H]1C3[C@@](O)(CC[C@H]1N(C)C(=O)/C=C/c1ccoc1)[C@H](NCC1CC1)C2 (stereo partly specified) | Not Active |

Same assay, conditions: read-out: Ki

| SMILES | Ki [nM] |
| --- | --- |
| COc1ccc2c3c1O[C@@H]1C3[C@@](O)(CC[C@H]1N(C)C(=O)/C=C/c1ccoc1)[C@H](N(CC1CC1)C(=O)C1CC1)C2 (stereo partly specified) | 1090 |
| COc1ccc2c3c1O[C@@H]1C3[C@@](O)(CC[C@H]1N(C)C(=O)/C=C/c1ccoc1)[C@H](N(CC1CC1)C(=O)c1ccccc1)C2 (stereo partly specified) | 275 |
| COc1ccc2c3c1O[C@@H]1C3[C@@H](CC[C@H]1N(C)C(=O)/C=C/c1ccoc1)[C@H](N(C)CC1CC1)C2 (stereo partly specified) | 50.1 |
| COc1ccc2c3c1O[C@@H]1C3[C@@H](CC[C@H]1N(C)C(=O)/C=C/c1ccoc1)[C@H](N(CC1CC1)C(=O)OC(C)(C)C)C2 (stereo partly specified) | 14.8 |
| COc1ccc2c3c1O[C@@H]1C3[C@@](O)(CC[C@H]1N(C)C(=O)/C=C/c1ccoc1)[C@H](N(CC1CC1)C(=O)OC(C)(C)C)C2 (stereo partly specified) | 72.8 |
| COc1ccc2c3c1O[C@@H]1C3[C@@H](CC[C@H]1N(C)C(=O)/C=C/c1ccoc1)[C@H](NCC1CC1)C2 (stereo partly specified) | 392 |
| COc1ccc2c3c1O[C@@H]1C3[C@]3(CC[C@H]1N(C)C(=O)/C=C/c1ccoc1)OC(=O)N(CC1CC1)[C@@H]3C2 (stereo partly specified) | 538 |
| COc1ccc2c3c1O[C@@H]1C3[C@]3(CC[C@H]1N(C)C(=O)/C=C/c1ccoc1)OS(=O)(=O)N(CC1CC1)[C@@H]3C2 (stereo partly specified) | 1200 |
| COc1ccc2c3c1O[C@@H]1C3[C@@H](CC[C@H]1N(C)C(=O)/C=C/c1ccoc1)[C@H](N(C)S(=O)(=O)c1ccccc1)C2 (stereo partly specified) | 829 |

Molecular target: T2, Orexin/Hypocretin receptor type 1 (Homo sapiens) (UniProt O43613)
T2 sequence (whole entry): T1 sequence (O43613 whole entry)
Assay: Antagonist activity at OX1R (unknown origin) assessed as inhibition of orexin A-induced intracellular Ca2+ release at 10 uM by cell-based assay relative to control
Type: functional
Conditions: not given

| SMILES | inhibition [%] |
| --- | --- |
| COc1ccc2c3c1O[C@@H]1C3[C@@](O)(CC[C@H]1N(C)C(=O)/C=C/c1ccoc1)[C@H](N(CC1CC1)C(C)=O)C2 (stereo partly specified) | 48 |
